# Experimental data as given in ChEMBL document CHEMBL1201862, “PubChem BioAssay data set” (2004).
#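 A five-concentration, 48-hour dose response in 96-well plates underlies each endpoint, interpolated linearly between surrounding concentrations. At the GI50, growth is halved.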 Calls of active or inactive are those of the source. Cut-off read from the data, not from the text of the source: active = GI50 up to about 1.1 µM and inactive = higher.
# Columns and labels:
# Assay in all cases: NCI-60 cell line screen, 48 h
# ACHN = system: ACHN
# NCI-H23 = system: NCI-H23
# SNB-19 = system: SNB-19
# MOLT-4 = system: MOLT-4
# KM12 = system: KM12
# HT-29 = system: HT-29
# COLO 205 = system: COLO 205
# EKVX = system: EKVX
# SNB-75 = system: SNB-75
# TK-10 = system: TK-10
# CAKI-1 = system: CAKI-1
# UACC-62 = system: UACC-62
# HL-60 = system: HL-60
# K562 = system: K562
# LOX IMVI = system: LOX IMVI
# SW-620 = system: SW-620
# MDA-N = system: MDA-N
# U-251 = system: U-251
# T47D = system: T47D
# SK-OV-3 = system: SK-OV-3
SMILES,GI50 (ACHN),GI50 (NCI-H23),GI50 (SNB-19),GI50 (MOLT-4),GI50 (KM12),GI50 (HT-29),GI50 (COLO 205),GI50 (EKVX),GI50 (SNB-75),GI50 (TK-10),GI50 (CAKI-1),GI50 (UACC-62),GI50 (HL-60),GI50 (K562),GI50 (LOX IMVI),GI50 (SW-620),GI50 (MDA-N),GI50 (U-251),GI50 (T47D),GI50 (SK-OV-3)
OCCCSCCO,> 100 µM (inactive),> 100 µM (inactive),> 100 µM (inactive),> 100 µM (inactive),> 100 µM (inactive),> 100 µM (inactive),> 100 µM (inactive),> 100 µM (inactive),> 100 µM (inactive),> 100 µM (inactive),> 100 µM (inactive),> 100 µM (inactive),> 100 µM (inactive),> 100 µM (inactive),> 100 µM (inactive),> 100 µM (inactive),> 100 µM (inactive),> 100 µM (inactive),> 100 µM (inactive),> 100 µM (inactive)
COC1=CC(=O)C2=C(C1=O)[C@H]1CC[C@]3(C)C(=O)CC[C@H]3[C@@H]1CC2,27.3 µM (inactive),27.1 µM (inactive),> 100 µM (inactive),4.31 µM (inactive),36.8 µM (inactive),26.3 µM (inactive),39.8 µM (inactive),16.7 µM (inactive),> 100 µM (inactive),> 100 µM (inactive),25.8 µM (inactive),30.1 µM (inactive),2.38 µM (inactive),33.6 µM (inactive),18.6 µM (inactive),26.4 µM (inactive),25.2 µM (inactive),32.2 µM (inactive),22.8 µM (inactive),> 100 µM (inactive)
CO[C@H]1O[C@@H]2CO[C@@H](c3ccccc3)O[C@H]2[C@@H]2CC=CCC[C@]12O,76.4 µM (inactive),36.6 µM (inactive),> 100 µM (inactive),25.1 µM (inactive),65.3 µM (inactive),40 µM (inactive),48.5 µM (inactive),36.8 µM (inactive),> 100 µM (inactive),93.5 µM (inactive),> 100 µM (inactive),63.4 µM (inactive),24.8 µM (inactive),33.9 µM (inactive),74.3 µM (inactive),54.1 µM (inactive),50.9 µM (inactive),60.3 µM (inactive),94 µM (inactive),> 100 µM (inactive)
COC(c1ccsc1)C(C#N)(C#N)/N=C/c1ccsc1 (stereo not given),18.7 µM (inactive),13.1 µM (inactive),23 µM (inactive),13.9 µM (inactive),16.7 µM (inactive),12.5 µM (inactive),16.5 µM (inactive),14.2 µM (inactive),15.1 µM (inactive),17.7 µM (inactive),4.68 µM (inactive),15.2 µM (inactive),3.18 µM (inactive),13 µM (inactive),10.3 µM (inactive),14.6 µM (inactive),16 µM (inactive),17.3 µM (inactive),13.9 µM (inactive),21.1 µM (inactive)
O=[N+]([O-])c1ccc2c3c1[C@H]1O[C@H]1c1cccc(c1-3)[C@@H]1O[C@H]21,2.22 µM (inactive),1.81 µM (inactive),3.54 µM (inactive),3.01 µM (inactive),2.35 µM (inactive),2.01 µM (inactive),2.05 µM (inactive),2.03 µM (inactive),1.97 µM (inactive),2.96 µM (inactive),1.99 µM (inactive),1.86 µM (inactive),3.15 µM (inactive),0.526 µM (active),0.305 µM (active),0.951 µM (active),2.17 µM (inactive),1.8 µM (inactive),2.08 µM (inactive),4.22 µM (inactive)
COc1ccccc1C(=O)NO,> 100 µM (inactive),> 100 µM (inactive),> 100 µM (inactive),> 100 µM (inactive),39.5 µM (inactive),> 100 µM (inactive),> 100 µM (inactive),> 100 µM (inactive),> 100 µM (inactive),> 100 µM (inactive),> 100 µM (inactive),> 100 µM (inactive),> 100 µM (inactive),> 100 µM (inactive),> 100 µM (inactive),> 100 µM (inactive),> 100 µM (inactive),> 100 µM (inactive),> 100 µM (inactive),> 100 µM (inactive)
COC1CCC(OS(C)(=O)=O)C(C)O1 (stereo not given),> 10 µM (inactive),> 10 µM (inactive),> 10 µM (inactive),> 10 µM (inactive),> 10 µM (inactive),> 10 µM (inactive),> 10 µM (inactive),> 10 µM (inactive),> 10 µM (inactive),> 10 µM (inactive),> 10 µM (inactive),> 10 µM (inactive),> 10 µM (inactive),> 10 µM (inactive),> 10 µM (inactive),> 10 µM (inactive),> 10 µM (inactive),> 10 µM (inactive),> 10 µM (inactive),> 10 µM (inactive)
O=C(O)[C@H]1[C@@H](C2CCCCC2)O[C@@H](C2CCCCC2)O[C@H]1C(F)(F)F,18.7 µM (inactive),21.3 µM (inactive),27.5 µM (inactive),21.6 µM (inactive),22.2 µM (inactive),22.6 µM (inactive),20.4 µM (inactive),21.4 µM (inactive),18.7 µM (inactive),60.1 µM (inactive),20.5 µM (inactive),18.5 µM (inactive),26.9 µM (inactive),33.1 µM (inactive),19.9 µM (inactive),19.8 µM (inactive),16.9 µM (inactive),18.8 µM (inactive),30.5 µM (inactive),38.9 µM (inactive)
OCCN(CCO)c1ccc2c(C(F)(F)F)cc(C(F)(F)F)nc2n1,> 100 µM (inactive),> 100 µM (inactive),> 100 µM (inactive),> 100 µM (inactive),> 100 µM (inactive),> 100 µM (inactive),> 100 µM (inactive),> 100 µM (inactive),> 100 µM (inactive),> 100 µM (inactive),> 100 µM (inactive),> 100 µM (inactive),> 100 µM (inactive),> 100 µM (inactive),> 100 µM (inactive),> 100 µM (inactive),> 100 µM (inactive),> 100 µM (inactive),> 100 µM (inactive),> 100 µM (inactive)
CC(C)(C)OC(=O)NC1CC2(C=C(Br)C(=O)C(Br)=C2)OC1=O (stereo not given),4.23 µM (inactive),7.85 µM (inactive),20.7 µM (inactive),0.401 µM (active),20.9 µM (inactive),5.74 µM (inactive),3.59 µM (inactive),12.9 µM (inactive),21.5 µM (inactive),5.38 µM (inactive),3.48 µM (inactive),17.6 µM (inactive),2.47 µM (inactive),2.56 µM (inactive),13 µM (inactive),2.01 µM (inactive),5.74 µM (inactive),17.4 µM (inactive),0.536 µM (active),17.3 µM (inactive)
